The values that follow come from patent US8173665B2, “I-pheny 1-3,4-dihydropyrimidin-2(1H)-one derivatives and their use” (Bayer Pharma Aktiengesellschaft, priority 2002, dated 2012).

As a reminder, the IC50 is the concentration that gives 50% inhibition.

The first assay deals with human polymorphonuclear cells (PMNs). The assay can be described thus: In vitro PMN elastolysis assay (3H-elastin). Particulars: at 1.2 μM; n=3 different donors at 3.6×10^5 cells per well. The format is cell-based. The procedure:
In Vitro PMN Elastolysis Assay
This assay is used to determine the elastolytic potential of human polymorphonuclear cells (PMNs) and assess the proportion of degradation due to neutrophil elastase [cf. Z. W. She et al., Am. J. Respir. Cell. Mol. Biol. 9, 386-392 (1993)].
Tritiated elastin, in suspension, is coated on to a 96 well plate at 10 μg per well. Test and reference [ZD-0892 (J. Med. Chem. 40, 1876-1885, 3173-3181 (1997), WO 95/21855) and α1 protease inhibitor (α1PI)] compounds are added to the wells at the appropriate concentrations. Human PMNs are separated from peripheral venous blood of healthy donors and resuspended in culture media. The neutrophils are added to the coated wells at concentrations ranging between 1×10^6 to 1×10^5 cells per well. Porcine pancreatic elastase (1.3 μM) is used as a positive control for the assay, and α1PI (1.2 μM) is used as the positive inhibitor of neutrophil elastase. The cellular control is PMNs without compound at each appropriate cell density. The cells plus compounds are incubated in a humidified incubator at 37° C. for 4 hours. The plates are centrifuged to allow the harvest of cell supernatant only. […] The plates are dried until no liquid is visible in the wells and read in a beta counter for 3 minutes per well. […]
The compounds of this invention are evaluated for their inhibitory activity in this HNE-dependent model of neutrophil elastolysis.
As for “α1PI: α1 protease inhibitor, used as the positive inhibitor of neutrophil elastase”, the “inhibition of elastolysis (mean±s.e.m.)” value turned out to be 83.46±3.97%.

The assay is the same for the next values; noted with them: n=2 different donors at 3.6×10^5 cells per well; read-out: IC50 (mean±s.e.m.).
As for `COc1ccc(C(=O)N[C@H](C(=O)N2CCC[C@H]2C(=O)N[C@H](C(=O)C(F)(F)F)C(C)C)C(C)C)cc1` [ZD-0892], the half-inhibitory concentration (IC50) was 45.5 ± 7.75 nM.

A further assay has as its target T1, human neutrophil elastase (HNE) (Homo sapiens, UniProt P08246).
T1 construct: purchased SERVA Electrophoresis GmbH, Heidelberg, Germany #20927.01
T1 sequence (P08246 30-267): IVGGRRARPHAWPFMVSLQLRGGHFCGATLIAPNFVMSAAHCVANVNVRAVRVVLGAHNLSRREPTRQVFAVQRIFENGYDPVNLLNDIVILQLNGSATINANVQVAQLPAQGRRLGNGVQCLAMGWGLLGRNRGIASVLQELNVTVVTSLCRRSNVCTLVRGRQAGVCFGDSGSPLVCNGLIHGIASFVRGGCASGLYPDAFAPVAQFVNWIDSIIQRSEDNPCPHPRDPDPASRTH
As to the kind of experiment: In vitro inhibition of HNE using a fluorogenic peptide substrate (MeOSuc-Ala-Ala-Pro-Val-AMC). The format is biochemical. Particulars: 384 MTP format. The procedure:
I. In Vitro Enzyme Assays of Human Neutrophil Elastase (HNE) assay buffer: 0.1 M HEPES-NaOH buffer pH 7.4, 0.5 M NaCl, 0.1% (w/v) bovine serum albumin; suitable concentration (see below) of HNE (18 U/mg lyophil., #20927.01, SERVA Electrophoresis GmbH, Heidelberg, Germany) in assay buffer; suitable concentration (see below) of substrate in assay buffer; suitable concentration of test compounds diluted with assay buffer from a 10 mM stock solution in DMSO.
In Vitro Inhibition of HNE Using a Fluorogenic Peptide Substrate
Continuous Read-Out Signal, 384 MTP Assay Format
In this protocol, the elastase substrate MeOSuc-Ala-Ala-Pro-Val-AMC (#324740, Calbiochem-Novabiochem Corporation, Merck KGaA, Darmstadt, Germany) is used. The test solution is prepared by mixing 10 μl of test compound dilution, 20 μl of HNE enzyme dilution (final concentration 8-0.4 μU/ml, routinely 2.1 μU/ml) and 20 μl of substrate dilution (final concentration 1 mM-1 μM, routinely 20 μM), respectively. The solution is incubated for 0-2 hrs at 37° C. (routinely one hour). The fluorescence of the liberated AMC due to the enzymatic reaction is measured at 37° C. (TECAN spectra fluor plus plate reader). The rate of increase of the fluorescence (ex. 395 nm, em. 460 nm) is proportional to elastase activity. IC50 values are determined by RFU-versus-[I] plots. Km and Km(app.) values are determined by Lineweaver-Burk plots and converted to Ki values by Dixon plots.
The compound `CC(=O)C1=C(C)N(c2cccc(C(F)(F)F)c2)C(=S)NC1c1ccc(C#N)cc1` (stereo not shown) [Example 1, 4-{5-Acetyl-6-methyl-2-thioxo-1-[3-(trifluoromethyl)phenyl]-1,2,3,4-tetrahydro-4-pyrimidinyl}benzonitrile] returned an IC50 of 13 nM.
Still for that read-out and setting: the figure for `CCOC(=O)C1=C(C)N(c2cccc(C(F)(F)F)c2)C(=S)NC1c1ccc(C#N)cc1` (stereo not shown) [Example 3, Ethyl 4-(4-cyanophenyl)-6-methyl-2-thioxo-1-[3-(trifluoromethyl)phenyl]-1,2,3,4-tetrahydro-5-pyrimidinecarboxylate] is 9 nM; for `CC1=C(C(N)=O)C(c2ccc(C#N)cc2)NC(=S)N1c1cccc(C(F)(F)F)c1` (stereo not shown) [Example 4, 4-(4-Cyanophenyl)-6-methyl-2-thioxo-1-[3-(trifluoromethyl)phenyl]-1,2,3,4-tetrahydro-5-pyrimidinecarboxamide] it is 23 nM; for `CC1=C(C(=O)N(C)C)C(c2ccc(C#N)cc2)NC(=S)N1c1cccc(C(F)(F)F)c1` (stereo not shown) [Example 6, 4-(4-Cyanophenyl)-N,N,6-trimethyl-2-thioxo-1-[3-(trifluoromethyl)phenyl]-1,2,3,4-tetrahydro-5-pyrimidinecarboxamide] it is 70 nM.
`CCOC(=O)C1=C(C)N(c2cccc(C(F)(F)F)c2)C(SC)=NC1c1ccc(C#N)cc1` (stereo not shown) [Example 7] had a half-inhibitory concentration (IC50) of 10 nM.
On the same count and under the same terms, to `CCOC(=O)C1=C(C)N(c2cccc(C(F)(F)F)c2)C(SCC)=NC1c1ccc(C#N)cc1` (stereo not shown) [Example 9] belongs 40 nM.
The compound `CCOC(=O)C1=C(C)N(c2cccc(C(F)(F)F)c2)C(SCc2ccncc2)=NC1c1ccc(C#N)cc1` (stereo not shown) [Example 12, Ethyl 4-(4-cyanophenyl)-6-methyl-2-[(4-pyridinylmethyl)sulfanyl]-1-[3-(trifluoromethyl)phenyl]-1,4-dihydro-5-pyrimidinecarboxylate] had an IC50 of 100 nM.
On the same count and under the same terms, to `CCOC(=O)C1=C(C)N(c2cccc(C(F)(F)F)c2)C(SCCN(CC)CC)=NC1c1ccc(C#N)cc1` (stereo not shown) [Example 14, Ethyl 4-(4-cyanophenyl)-2-{[2-(diethylamino)ethyl]sulfanyl}-6-methyl-1-[3-(trifluoromethyl)phenyl]-1,4-dihydro-5-pyrimidinecarboxylate] belongs 10 nM.
On the same count and under the same terms, to `CCOC(=O)C1=C(C)N(c2cccc(C(F)(F)F)c2)C(SCc2ncc[nH]2)=NC1c1ccc(C#N)cc1` (stereo not shown) [Example 15, Ethyl 4-(4-cyanophenyl)-2-[(1H-imidazol-2-ylmethyl)sulfanyl]-6-methyl-1-[3-(trifluoromethyl)phenyl]-1,4-dihydro-5-pyrimidinecarboxylate] belongs 5 nM; to `CC1=C(C(=O)O)C(c2ccc(C#N)cc2)NC(=S)N1c1cccc(C(F)(F)F)c1` (stereo not shown) [Example 19, 4-(4-Cyanophenyl)-6-methyl-2-thioxo-1-[3-(trifluoromethyl)phenyl]-1,2,3,4-tetrahydropyrimidine-5-carboxylic acid], 30 nM; to `CCOC(=O)C1=C(C)N(c2cccc(C(F)(F)F)c2)C(=S)N(C(=O)C2CCC2)C1c1ccc(C#N)cc1` (stereo not shown) [Example 29], 10 nM.
The same measure, in the same setting: the figure for `CCOC(=O)C1=C(C)N(c2cccc(C(F)(F)F)c2)C(SC)=NC1c1ccc(C#N)cc1C` (stereo not shown) [Example 31, Ethyl 4-(4-cyano-2-methylphenyl)-6-methyl-2-(methylsulfanyl)-1-[3-(trifluoromethyl)phenyl]-1,4-dihydro-5-pyrimidinecarboxylate] is 80 nM; for `CCOC(=O)C1=C(C)N(c2cccc(Cl)c2)C(SCCCOC(N)=O)=NC1c1ccc(C#N)cc1` (stereo not shown) [Example 33] it is 20 nM.
Regarding `CCN(CC)CCOC(=O)C1=C(C)N(c2cccc(C(F)(F)F)c2)C(SC)=NC1c1ccc(C#N)cc1` (stereo not shown) [Example 58, 2-(Diethylamino)ethyl 4-(4-cyanophenyl)-6-methyl-2-(methylsulfanyl)-1-[3-(trifluoromethyl)phenyl]-1,4-dihydro-5-pyrimidinecarboxylate], half-maximal inhibition (IC50) was put at 12 nM.
